# Reference: patent US20260007601A1, “IONIZABLE CATIONIC LIPID COMPOUND AND COMPOSITION FOR DELIVERING NUCLEIC ACID AND USE THEREOF” (BEIJING YOUCAREKECHUANG PHARMACEUTICAL TECHNOLOGY CO., LTD., priority 2023, published 2026)
# Legend:
# 293T cells [1] = test: Fluorescence detection of Fluc-mRNA (cell transfection efficiency of LNP formulations); format: cell-based; conditions: for Relative light unit (RLU): LNP containing 0.3 μg Fluc-mRNA, 24 hours; for Multiples of values that equivalent to YK-201: RLU of YK-201 / RLU of the named lipid; for Multiples of values that equivalent to YK-202: RLU of YK-202 / RLU of the named lipid; for Multiples of values that equivalent to YK-209: RLU of YK-209 / RLU of the named lipid; for Ratio relative to SM-102: RLU of the named lipid / RLU of SM-102, times that of SM-102
# Method in brief: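 293T cells at 10,000 per well, adhered overnight, then given LNPs carrying 0.3 μg Fluc-mRNA (cationic:neutral:structured:polymer-conjugated lipid 49:10:39.5:1.5 molar). After 24 h, luciferase signal read with luciferase kit reagents on an IVIS imaging system as transfection efficiency.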
# female BALB/C mice = test: Mouse in vivo imaging of Fluc-mRNA LNP formulations; parameters: average radiation intensity (mRNA expression): unit not given here; conditions: for average radiation intensity (mRNA expression): 10 μg Fluc-mRNA LNP intramuscularly
# Procedure: The LNP formulation containing 10 μg Fluc-mRNA (prepared according to Example 4) was injected intramuscularly into female BALB/C mice aged 4 to 6 weeks and weighing 17 to 19 g, and the mice were intraperitoneally injected with fluorescent imaging substrates at specific time points (6 h, 24 h, 48 h and 7 d) after administration. The mice moved freely for 5 minutes, and then the average radiation intensity (corresponding to the fluorescence expression intensity) of the protein expressed by the mRNA carried by the LNP in the mice was detected by IVIS Spectrum small animal in vivo imager. The test results are shown in Tables 14 to 17 and FIGS. 12 to 14.
# [2] = Particle size and polydispersity index (PDI) of nanolipid particles, dynamic light scattering; format: physicochemical; conditions: LNP formulation prepared from the named cationic lipid, 25° C
# Procedure: The particle size and polydispersity index (PDI) were determined by dynamic light scattering method using a Malvern laser particle size analyzer. 10 μL of liposome solution was diluted to 1 mL with RNase-free deionized water and added to a sample pool. Each sample was measured three times. The measurement conditions were: 90° scattering angle, 25° C.
# [3] = Encapsulation rate, drug loading concentration and total RNA concentration detection (RiboGreen); format: physicochemical; conditions: for Drug loading concentration / Encapsulation rate / Total RNA concentration: LNP formulation of the named lipid
# 293T cells [4] = test: Cell survival rate assay (CCK-8); format: cell-based; conditions: for Cell survival rate: LNP containing 1.5 μg Fluc-mRNA, 24 hours, CCK-8
# Method in brief: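 293T cells seeded at 10,000 per well and grown overnight, then exposed for 24 h to LNPs (cationic/neutral/structured/PEG lipids 49:10:39.5:1.5) carrying 1.5 μg Fluc-mRNA, or Lipofectamine 3000. Viability read by CCK-8, 1 h incubation, absorbance at 450 nm.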
compound,measurement,setting,value
CCCCCCCCCCCOC(=O)CCCCCN(CCCCCCCC(=O)OC(CCCCCCC)CCCCCCC)CCN(C)CCO [YK-206],"RLU / cell transfection efficiency, times that of ALC-0315",293T cells [1]; Fluc-mRNA LNP,9 times
same,"RLU / cell transfection efficiency, times that of HHMA",293T cells [1]; Fluc-mRNA LNP,10 times
same,"RLU / cell transfection efficiency, times that of Lipofectamine 3000",293T cells [1]; Fluc-mRNA LNP,17 times
same,"RLU / cell transfection efficiency, times that of YK-009",293T cells [1]; Fluc-mRNA LNP,4 times
same,"RLU / cell transfection efficiency, times that of compound 21",293T cells [1]; Fluc-mRNA LNP,14 times
same,"RLU / cell transfection efficiency, times that of compound 23",293T cells [1]; Fluc-mRNA LNP,15 times
same,"fluorescence absorption value / cell transfection efficiency, times that of YK-205",293T cells [1]; Fluc-mRNA LNP,20.29 times
same,Relative light unit (RLU),293T cells [1],21058746 RLU
same,Multiples of values that equivalent to YK-201,293T cells [1],1.35
same,Multiples of values that equivalent to YK-202,293T cells [1],1.42
same,Multiples of values that equivalent to YK-209,293T cells [1],1.28
same,average radiation intensity (mRNA expression),female BALB/C mice; 6 h,2068900
same,average radiation intensity (mRNA expression),female BALB/C mice; 24 h,1553050
same,average radiation intensity (mRNA expression),female BALB/C mice; 48 h,500150
same,average radiation intensity (mRNA expression),female BALB/C mice; 7 d,23015
same,"mRNA expression level in mice can reach, times that of ALC-0315",female BALB/C mice; time point not stated,13 times
same,"mRNA expression level in mice can reach, times that of HHMA",female BALB/C mice; time point not stated,16 times
same,"mRNA expression level in mice can reach, times that of SM-102",female BALB/C mice; time point not stated,16 times
same,"mRNA expression level in mice can reach, times that of compound 21",female BALB/C mice; time point not stated,16 times
same,"mRNA expression level in mice can reach, times that of compound 23",female BALB/C mice; time point not stated,16 times
same,PDI,[2],18.8%
same,Particle size,[2],216 nm
same,"drug loading concentration, times that of ALC-0315",[3],1.46 times
same,"drug loading concentration, times that of HHMA",[3],1.24 times
same,"drug loading concentration, times that of SM-102",[3],1.50 times
same,"drug loading concentration, times that of YK-009",[3],1.42 times
same,"drug loading concentration, times that of compound 21",[3],1.69 times
same,"drug loading concentration, times that of compound 23",[3],1.84 times
same,"total RNA concentration, times that of ALC-0315",[3],1.12 times
same,"total RNA concentration, times that of HHMA",[3],1.10 times
same,"total RNA concentration, times that of SM-102",[3],1.18 times
same,"total RNA concentration, times that of YK-009",[3],1.08 times
same,"total RNA concentration, times that of compound 21",[3],1.36 times
same,"total RNA concentration, times that of compound 23",[3],1.28 times
same,Drug loading concentration,[3],38.09 µg/mL
same,Encapsulation rate,[3],91.4%
same,Total RNA concentration,[3],41.69 µg/mL
same,encapsulation rate higher than that of ALC-0315,[3]; difference of rates,28.60%
same,encapsulation rate higher than that of HHMA,[3]; difference of rates,30.90%
same,encapsulation rate higher than that of SM-102,[3]; difference of rates,29.10%
same,encapsulation rate higher than that of YK-009,[3]; difference of rates,28.40%
same,encapsulation rate higher than that of compound 21,[3]; difference of rates,33.60%
same,encapsulation rate higher than that of compound 23,[3]; difference of rates,36.20%
same,Cell survival rate,293T cells [4],74.57%
same,cell survival rate higher than that of ALC-0315,293T cells [4]; difference of rates,24.61%
same,cell survival rate higher than that of HHMA,293T cells [4]; difference of rates,9.01%
same,cell survival rate higher than that of Lipofectamine 3000,293T cells [4]; difference of rates,51.52%
same,cell survival rate higher than that of SM-102,293T cells [4]; difference of rates,6.02%
same,cell survival rate higher than that of compound 21,293T cells [4]; difference of rates,5.55%
same,cell survival rate higher than that of compound 23,293T cells [4]; difference of rates,4.47%
"CCCCCCCCCCCCC(O)CN(C)CCCCCC(=O)OCC(CCCCCC)CCCCCCCC (stereo not shown) [HHMA, reference compound]",Relative light unit (RLU),293T cells [1],2099714 RLU
same,Multiples of values that equivalent to YK-201,293T cells [1],13.56
same,Multiples of values that equivalent to YK-202,293T cells [1],14.27
same,Ratio relative to SM-102,293T cells [1],1.26
same,average radiation intensity (mRNA expression),female BALB/C mice; 6 h,638870
same,average radiation intensity (mRNA expression),female BALB/C mice; 24 h,109650
same,average radiation intensity (mRNA expression),female BALB/C mice; 48 h,29445
same,average radiation intensity (mRNA expression),female BALB/C mice; 7 d,5312
same,PDI,[2],15.1%
same,Particle size,[2],135 nm
same,Drug loading concentration,[3],30.6 µg/mL
same,Encapsulation rate,[3],60.5%
same,Total RNA concentration,[3],37.84 µg/mL
same,Cell survival rate,293T cells [4],65.56%
CCCCCCCCCCCOC(=O)CCCCCN(CCCCCCCC(=O)OC(CCCCCCCC)CCCCCCCC)CCN(C)CCOC [YK-215],Relative light unit (RLU),293T cells [1],981165 RLU
same,Multiples of values that equivalent to YK-201,293T cells [1],29.03
same,Multiples of values that equivalent to YK-202,293T cells [1],30.53
same,Multiples of values that equivalent to YK-209,293T cells [1],21.46
same,Ratio relative to SM-102,293T cells [1],0.59
same,average radiation intensity (mRNA expression),female BALB/C mice; 6 h,50564
same,average radiation intensity (mRNA expression),female BALB/C mice; 24 h,6815
same,average radiation intensity (mRNA expression),female BALB/C mice; 48 h,3640
same,average radiation intensity (mRNA expression),female BALB/C mice; 7 d,1020
same,PDI,[2],20.8%
same,Particle size,[2],219 nm
same,Drug loading concentration,[3],29.30 µg/mL
same,Encapsulation rate,[3],68.0%
same,Total RNA concentration,[3],43.13 µg/mL
same,Cell survival rate,293T cells [4],44.59%
